Measured values reported in patent US12257284B2, “Lantibiotics, lantibiotic-producing bacteria, compositions and methods of production and use thereof” (MEMORIAL SLOAN-KETTERING CANCER CENTER, priority 2017, dated 2025).
Non-standard residues stand in square brackets, D forms with d. No end group written: not given here. Dhb = C/C=C(\N)C(=O)O; Dha = C=C(N)C(=O)O

Assays:
VRE [1] = experiment: VRE cultured in cecal supernatant of mice colonized with B. producta strains; format: cell-based, vancomycin-resistant Enterococcus; settings: cecal content 7 days post-transplant, 100 mg/mL, filtered; VRE 10^3 CFU/mL, 6 hours; FIG. 20
Procedure: 6-8 week old, C57BL/6 mice were administered ampicillin (0.5 g/L) in the drinking water for 5 days, and subsequently orally gavaged with a bacterial consortia (10^7 CFU per bacterial isolate). Bacterial consortia for oral gavage were prepared by individually culturing the B. producta Caballero strain, or the B. producta Honda strain, on Columbia base medium (agar, peptones, cornstarch) plus 5% sheep blood agar plates, anaerobically at 37° C. overnight. Each isolate was subsequently harvested and resuspended in reduced phosphate buffered saline (PBS) to a final concentration of 10^8 CFU/mL. 7 days post-transplant, cecal content was harvested and resuspended in PBS to a final concentration of 100 mg/mL. Cecal supernatant was collected by filtration through a 0.22 μm filter. VRE inoculated at 10^3 CFU/mL in the cecal supernatant and incubated at 37° C. aerobically. VRE was cultured for 6 hours and quantitated.

VRE [2] = experiment: VRE cultured with ammonium sulfate precipitated, dialyzed B. producta protein, VRE CFU quantitated; format: cell-based, vancomycin-resistant Enterococcus
Procedure: 10^7 CFU/mL B. producta was cultured for 24 hours anaerobically at 37° C. in BHIS. The culture supernatant was filtered through a 0.22 μm filter. Ammonium sulfate was added to the filtered culture supernatant at varying concentrations to precipitate proteins. Precipitated proteins were resolubilized in phosphate buffered saline (PBS) (2 mg/mL) and dialyzed. The dialyzed protein was returned to the original culture volume with fresh culture medium and samples were innoculated with 10^3 CFU/mL VRE and cultured for 6 or 24 hours anaerobically at 37° C. […] 10^7 CFU/mL B. producta was cultured for 24 hours anaerobically at 37° C. in BHIS. The culture supernatant was filtered through a 0.22 μm filter. Ammonium sulfate was added to the filtered culture supernatant at varying concentrations to precipitate proteins. Precipitated proteins were resolubilized in phosphate buffered saline (PBS) (2 mg/mL) and dialyzed (the dialyzed protein was returned to the original culture volume with PBS) and samples were innoculated with 10^3 CFU/mL VRE and cultured for 6 or 24 hours anaerobically at 37° C.
10^7 CFU/mL B. producta was cultured for 24 hours anaerobically at 37° C. in BHIS. The culture supernatant was filtered through a 0.22 μm filter. 45% ammonium sulfate was added to the filtered culture supernatant to precipitate proteins. The precipitate was resolubilized in PBS (2 mg/mL), then dialyzed. The dialyzed protein was incubated with Proteinase K (1 mg/mL) for 1 hour at 37° C. These conditions are sufficient to completely digest BSA at a concentration of 100 μg/m, as evidenced by the […] in gel electrophoresis. The dialyzed protein/proteinase K solution was returned to its original volume in fresh culture medium and inoculated with 10^3 CFU/mL VRE the cultured for 6 or 24 hours anaerobically at 37° C.
10^7 CFU/mL B. producta was cultured for 24 hours anaerobically at 37° C. in BHIS. The culture supernatant was filtered through a 0.22 μm filter. 45% ammonium sulfate was added to the filtered culture supernatant to precipitate proteins. The precipitate was resolubilized in PBS (2 mg/mL), then dialyzed. The dialyzed protein was incubated at 100° C. for ten minutes. The heated, dialyzed protein solution was returned to its original volume in fresh culture medium and inoculated with 10^3 CFU/mL VRE the cultured for 6 or 24 hours anaerobically at 37° C.
10^7 CFU/mL B. producta was cultured for 24 hours anaerobically at 37° C. in BHIS. The culture supernatant was filtered through a 0.22 μm filter. Ammonium sulfate was added to the filtered culture supernatant at varying concentrations to precipitate proteins. […] Fecal pellets were collected 0, 5, 10 days after bacterial consortia transplant, and VRE was quantitated.

K. pneumoniae = experiment: Spectrum: bacterial survival with B. producta culture extract; format: cell-based; settings: greater than 100 kDa concentrated supernatant; 6, 24 or 48 hours; FIG. 34
Procedure: (§1) 10^7 CFU/mL B. producta was cultured for 0, 6, 24 hours in BHIS anaerobically at 37° C. The culture supernatant at 0, 6, and 24 hours was filtered through a 0.22 μm filter, then concentrated by ultrafiltration with a molecular weight cut off greater than 100 kDa. The concentrated culture supernatant was then diluted to the original volume with fresh BHIS culture medium. 10^3 CFU/mL VRE, B. producta, C. bolteae, P. distasonis, B. sartorii, C. difficile, K pneumoniae, E. coli, S. aureus, E. faecalis, E. faecium, or L monocytogenes were cultured for 6, 24, or 48 hours anaerobically at 37° C.

L. monocytogenes = experiment: as above; format: cell-based; settings: greater than 100 kDa concentrated supernatant; 6, 24 or 48 hours; FIG. 34
Procedure: as §1

B. producta = experiment: as above; format: cell-based; settings: greater than 100 kDa concentrated supernatant; 6, 24 or 48 hours; FIG. 34
Procedure: as §1

E. coli = experiment: as above; format: cell-based; settings: greater than 100 kDa concentrated supernatant; 6, 24 or 48 hours; FIG. 34
Procedure: as §1

E. faecalis = experiment: as above; format: cell-based; settings: greater than 100 kDa concentrated supernatant; 6, 24 or 48 hours; FIG. 34
Procedure: as §1

P. distasonis = experiment: as above; format: cell-based; settings: greater than 100 kDa concentrated supernatant; 6, 24 or 48 hours; FIG. 34
Procedure: as §1

E. faecium = experiment: as above; format: cell-based; settings: greater than 100 kDa concentrated supernatant; 6, 24 or 48 hours; FIG. 34
Procedure: as §1

S. aureus = experiment: as above; format: cell-based; settings: greater than 100 kDa concentrated supernatant; 6, 24 or 48 hours; FIG. 34
Procedure: as §1

C. difficile = experiment: as above; format: cell-based; settings: greater than 100 kDa concentrated supernatant; 6, 24 or 48 hours; FIG. 34
Procedure: as §1

B. sartorii = experiment: as above; format: cell-based; settings: greater than 100 kDa concentrated supernatant; 6, 24 or 48 hours; FIG. 34
Procedure: as §1

gram-positive bacteria = experiment: Minimum inhibitory concentration by serial dilution against gram-positive bacterial strains; format: cell-based; settings: dialyzed protein serially diluted in BHIS, 10^5 CFU/mL bacteria, 24 hours; FIG. 35
Procedure: 10^7 CFU/mL B. producta Caballero strain or Honda strain was cultured for 24 hours in BHIS anaerobically at 37° C. The culture supernatant was filtered through a 0.22 μm filter. Ammonium sulfate was added to the filtered culture supernatant at varying concentrations to precipitate proteins. Precipitated proteins were resolubilized in water (5 mg/mL) and dialyzed. The dialyzed protein or nisin (1:2) were serially diluted with fresh BHIS across a row of wells in a 96 well plate per gram-positive bacteria strain. 10^5 CFU/mL of various gram-positive bacterial strains indicated in FIG. 35 were cultured for 24 hours anaerobically at 37° C. The minimum inhibitory concentration (highest dilution at which gram-positive bacteria growth was inhibited) was thus identified.

VRE [3] = experiment: Microscopy of VRE cultured with B. producta factor; format: cell-based, vancomycin-resistant Enterococcus; settings: 10^8 CFU/mL VRE, 24 hours
Procedure: 10^7 CFU/mL B. producta was cultured for 24 hours anaerobically at 37° C. in BHIS. The culture supernatant was filtered through a 0.22 μm filter. Ammonium sulfate was added to the filtered culture supernatant at varying concentrations to precipitate proteins. Precipitated proteins were resolubilized in phosphate buffered saline (PBS) (2 mg/mL) and dialyzed. The dialyzed protein was returned to the original culture volume with supplemented PBS (the dialyzed protein was returned to the original culture volume with PBS) and samples were innoculated with 10^8 CFU/mL VRE and cultured for 24 hours anaerobically at 37° C. Bacteria were fixed onto slides for microscopy.

VRE [4] = experiment: VRE cultured in filtered culture supernatants or size fractions, VRE CFU quantitated; format: cell-based, vancomycin-resistant Enterococcus; settings: VRE 6 hours
Procedure: 10^7 CFU/mL B. producta or C. bolteae±10^3 CFU/mL VRE were cultured in BHIS for 6 hours anaerobically at 37° C. The culture supernatants were filtered through a 0.22 μm filter. 10^3 CFU/mL VRE were cultured in the filtered culture supernatants for 2, 6, or 24 hours anaerobically at 37° C. […] 10^7 CFU/mL B. producta, C. bolteae, P. distasonis, or B. sartorii were cultured in BHI overnight (at least 8 hours) anaerobically at 37° C. The culture supernatants were filtered through a 0.22 μm filter and diluted 1:2 in fresh BHIS. 10^3 CFU/mL VRE were cultured in the filtered culture supernatants for 2, 6, or 24 hours anaerobically at 37° C.
10^7 CFU/mL B. producta was cultured for 0, 6, 24 hours in BHIS anaerobically at 37° C. Culture growth was verified by quantitating B. producta CFU at 6, 24, 48, and 72 hours. […] The culture supernatant at 0, 6, and 24 hours was filtered through a 0.22 μm filter, then concentrated by ultrafiltration with a molecular weight cut off greater than 100 kDa. The concentrated culture supernatant was then diluted to the original volume with fresh BHIS culture medium. Concentrated/diluted medium was inoculated with 10^3 CFU/mL VRE and cultured anaerobically at 37° C. for 6, 24, 48 hours.
10^7 CFU/mL B. producta were cultured for 24 hours anaerobically at 37° C. in BHIS. […]

B. producta factor: VRE-inhibiting factor secreted by B. producta, a lantibiotic according to the disclosure (SEQ. ID. No.: 3) (I[Dhb][Dha]I[Dha]LA[Dhb]PGAK[Dhb]GALMGAV[Dhb]GILM[Dhb]APVQ[Dhb]A[Dhb]AGAQI[Dhb]GK; not fully specified; also: lantibiotic (lanthionine bridges not given here))
VRE growth in cecal supernatant of colonized mice (VRE [1]): inhibits VRE | Number of VRE (CFU) over time in PBS (bactericidal effect) (VRE [2]; 10^5 CFU/mL VRE, 6-120 hours in PBS, FIG. 18): permanent decline in the number of VRE | VRE inhibition after boiling (VRE [2]; 45% ammonium sulfate precipitate, 100° C. for ten minutes, FIG. 13): able to inhibit VRE | VRE inhibition after Proteinase K digestion (VRE [2]; 45% ammonium sulfate precipitate, Proteinase K 1 mg/mL, 1 hour at 37° C., FIG. 12): able to inhibit VRE | VRE inhibition by ammonium sulfate precipitate (VRE [2]; precipitate resolubilized, dialyzed, returned to volume with PBS, 6 or 24 hours, FIG. 11): inhibited VRE | Inhibition of K. pneumoniae (survival relative to negative control extract) (K. pneumoniae): not | Inhibition of L. monocytogenes (survival relative to negative control extract) (L. monocytogenes): inhibited | Inhibition of B. producta (survival relative to negative control extract) (B. producta): not | Inhibition of E. coli (survival relative to negative control extract) (E. coli): not | Inhibition of E. faecalis (survival relative to negative control extract) (E. faecalis): inhibited | Inhibition of P. distasonis (survival relative to negative control extract) (P. distasonis): not | Inhibition of E. faecium (survival relative to negative control extract) (E. faecium): inhibited | Inhibition of S. aureus (survival relative to negative control extract) (S. aureus): inhibited | Inhibition of C. difficile (survival relative to negative control extract) (C. difficile): not | Inhibition of B. sartorii (survival relative to negative control extract) (B. sartorii): not | Inhibition of various gram-positive bacterial strains (minimum inhibitory concentration, highest dilution) (gram-positive bacteria): broadly inhibits gram-positive bacteria | Phase contrast microscopy of VRE versus control (VRE [3]; FIG. 21): smaller, less numerous, more frequently in a single coccus arrangement and surrounded by more cellular debris | Fluorescence microscopy of VRE (SYTO9 / propidium iodide) versus control (VRE [3]; FIG. 22): less viable | Gram stain light microscopy of VRE versus control (VRE [3]; FIG. 23): generally lacked purple staining

nisin
VRE growth (VRE CFU) in filtered culture supernatant or nisin medium (VRE [4]; filtered supernatant, nisin extract powder 1 mg per 1 mL medium, FIG. 31 left panel): inhibited VRE | VRE growth (VRE CFU) with greater than 100 kDa concentrated samples (VRE [4]; samples concentrated by ultrafiltration, cut off greater than 100 kDa, diluted to original volume, FIG. 31 right panel): inhibited VRE
